Assay results: patent US20110289042A1, “Integrative Framework for Three-Stage Integrative Pathway Search” (BOARD OF TRUSTEES OF MICHAGN STATE UNIVERSITY, priority 2005, published 2011)
Read-outs that look alike come from different tables or passages of the source.

Columns and labels:
Type in all cases: cell-based, human
SCD gene expression = SCD gene expression by cDNA microarray in HepG2 cells; settings: TNF-α in HepG2 cells; log 2(treatment/control)
Experimental: Gene expression profiling. Cells were cultured in 10 cm tissue culture plates until confluence and then exposed to different treatments. RNA was isolated with Trizol reagent. The gene expression profiling was obtained with cDNA microarray. Analyses were done at the Van Andel Institute, Grand Rapids, Mich. The protocols are available online at (http://microarray.vai.org/protocols/). There were two biological replicates for each condition and each replicate was measured with the Cy3 and Cy5 dyes.

PKC-δ = PKC-δ expression by western blot in HepG2 cells; settings: TNF-α 20 and 100 ng/mL; control, palmitate and oleate cultures
Experimental: PKC-δ Inhibiting Analysis. The levels of PKC-δ in HepG2, palmitate (700 μM), oleate (700 μM) and palmitate (400 μM)+oleate medium (300 μM) with TNF-α supplementation of 0, 20, 100 ng/mL were detected with western blotting using anti-PKC-δ antibody (Santa Cruz Biotechnology, Inc., Santa Cruz, Calif., US) at 1:2000 dilution.

[1] = test system: stearoyl-CoA desaturase (SCD); test: SCD protein expression by western blot in HepG2 cells
Experimental: The protein expression level of SCD in HepG2 cells cultured in control (HepG2 medium), palmitate, oleate, palmitate+oleate, mediums were measured as a function of TNF-α with western blots.

phospho-P65 NF-κB = phospho-P65 NF-κB by western blot in HepG2 cells
Experimental: Therefore, we tested the possibility of this link in HepG2 cells by adding rottlerin, an inhibitor of PKC-δ, and measuring the protein expression and activity levels of NF-κB with western blots. […] This confirmed the connection between TNF-α and PKC-δ in the reconstructed network (model). To determine whether PKC-δ is involved in mediating the activation of NF-κB by TNF-α, PKC-δ was inhibited by a PKC-δ specific inhibitor rottlerin. The activity of NF-κB was measured with western blots by detecting the levels of phosphorylated NF-κB p65 at serine 536 [Sakurai et al. 2003]. As shown in FIG. 6(A), the activation of NF-κB p65 was attenuated by rottlerin. […] Therefore, PKC-δ was appropriately identified by the model to be an important factor in mediating the TNF-α signaling pathway.
PKC-δ was inhibited with rottlerin (BIOMOL Research Laboratories, Plymouth Meeting, Pa.). […] After 48 hours of exposure, cells were lysated with 1× SDS sample buffer. After ultrasonication for 11-15 seconds, the suspension was centrifuged (10,000 relative centrifugal force (rcf), 5 minutes). The supernatant was run on 7.5% gradient SDS-PAGE, transferred to a nitrocellulose membrane, blocked for 1 hour at room temperature with 5% milk protein solution in Tris buffered saline with Tween 20, and exposed to monoclonal anti-phospho NF-κB (65 kDa subunit) (Cell Signaling Technology Inc., MA) at 1:2000 dilution overnight at 4° C. The blot was washed and put in rabbit anti-mouse IgG secondary antibody (1:2000 dilution in TBS-Tween) for 1 hour. The blot was washed thrice each in TBS-Tween and TBS and developed using Supersignal West Femto Substrate (Pierce Chemicals), and imaged with Bio-Rad imager.
Bcl-2 was inhibited with HA14-1 (BIOMOL Research Laboratories, Plymouth Meeting, Pa.) at 10 μM. The phospho-NF-κB p65 was detected with monoclonal anti-phospho NF-κB (65 kDa subunit) (Cell Signaling Technology Inc., Danvers, Mass., US) at 1:2000 dilution.

Hep G2/C3A cells = test system: Hep G2/C3A cells
Experimental: Cell Culture. 1 million Hep G2/C3A cells (ATCC, Manassas, Va.) were seeded into each well of 6-well culture plate. The cells were kept in 2 mL of medium containing Dulbecco's modified Eagles medium (Invitrogen, Carlsbad, Calif.) supplemented with 10% fetal bovine serum (ATCC) and 2% Penicillin-streptomycin (Invitrogen). Cells were incubated at 37° C. and in 10% CO2 atmosphere. After cells reached confluence, the medium was replaced with 2 mL of treatment of FFA including palmitate (700 μM), oleate (700 μM), linoleate (700 μM) and TNF-α (0, 20, 100 ng/mL′)
Cytotoxicity measurement. […] Cells were washed with phosphate buffered saline (PBS) and kept in 1% Triton-X-100 in PBS for 24 h at 37° C. Cell lysate was then collected, vortexed for 15 seconds, and centrifuged at 7000 rpm for 5 minutes. Cytotoxicity detection kit (Roche Applied Science, Indianapolis, Ind.) was used to measure the LDH release. LDH released was normalized to the total LDH (released+lyzed).

Bcl-2 = Bcl-2 protein expression by western blot in HepG2 cells
Experimental: Cells cultured in mediums of HepG2, Palmitate, Oleate, Palmitate (400 μM)+Oleate medium (300 μM) were lysated as described before. The protein samples were run on 10-20% gradient SDS-PAGE. Bcl-2 was probed with Bcl-2 antibody (1:1000) (Cell Signaling Technology, Inc., Danvers, Mass., US) as the primary antibody and goat anti-rabbit IgG as the second antibody at 1:1000 dilution.

Compound: TNF-α
- gene expression of SCD (SCD gene expression): upregulated
- expression of PKC-δ 41 kDa catalytically active fragment (PKC-δ): increased
- SCD protein expression ([1]; TNF-α, control, oleate and co-supplementation cultures): decreased the expression of SCD
- phospho-P65 NF-κB (phospho-P65 NF-κB; TNF-α 0, 20 or 100 ng/mL): activated phospho-P65 NF-κB
- cytotoxicity (Hep G2/C3A cells): cytotoxic
- LDH release in control culture (Hep G2/C3A cells; TNF-α in control culture): did not affect LDH release
- cytotoxicity (Hep G2/C3A cells; record 2): cytoprotective
- Bcl-2 expression (Bcl-2; TNF-α 20-100 ng/mL, control, palmitate and oleate cultures): down-regulated

Compound: O=C1Nc2ccc3ncsc3c2/C1=C/c1cnc[nH]1 [PKR inhibitor]
- LDH release (Hep G2/C3A cells; PKR inhibitor 6 μM in control culture medium, 3% without inhibitor): 25%
- Bcl-2 expression (Bcl-2; 6 μM in culture medium of control): decreased the Bcl-2 expression

Compound: CC(=O)c1c(O)c(C)c(O)c(Cc2c(O)c3c(c(C(=O)/C=C/c4ccccc4)c2O)OC(C)(C)C=C3)c1O [rottlerin]
- TNF-α-induced activation of phospho-P65 NF-κB (phospho-P65 NF-κB; rottlerin 5 μM, 0, 20 or 100 ng/mL TNF-α): this activation was attenuated
- increase of LDH release in the palmitate cultures (Hep G2/C3A cells; rottlerin added to palmitate cultures): up to 25%

Compound: CCOC(=O)C1=C(N)Oc2ccc(Br)cc2C1C(C#N)C(=O)OCC (stereo not shown) [HA14-1]
- activation of phospho-P65 NF-κB (phospho-P65 NF-κB; 10 μM, control, palmitate, oleate and palmitate+oleate co-supplementation cultures): attenuated the activation of phospho-P65 NF-κB

Compound: CC(=O)N[C@@H](CS)C(=O)O [N-acetyl cysteine]
- SCD protein expression in palmitate culture ([1]; co-supplementation of 10 mM): prevented the SCD down-regulation
- LDH release in palmitate culture (Hep G2/C3A cells; co-supplementation of 10 mM): reduced LDH release

Compound: CC(C)(Oc1ccc(C2CC2(Cl)Cl)cc1)C(=O)O (stereo not shown) [ciprofibrate]
- LDH release in palmitate culture (Hep G2/C3A cells; 6 hours pretreatment followed by 48 hours co-supplementation of 50 μM, palmitate culture): significantly decrease LDH release
